These results are taken from patent publication US20250264484A1, “METHODS FOR IDENTIFYING AND TREATING DISEASES” (Genzyme Corporation, priority 2022, published 2025).

Experiment [1] has as its system SHSY-5Y neuroblastoma cells. As to conditions: wild-type cells.
Experiment [2] concerns the target T1, GCase (Mus musculus, UniProt P17439).
T1 construct: GCase activity remaining 24 hours after administration of CBE was measured; from tissue; host or cells: cortex and liver of wild-type mice (Charles River Laboratories or Jackson Labs)
T1 sequence (P17439 20-515): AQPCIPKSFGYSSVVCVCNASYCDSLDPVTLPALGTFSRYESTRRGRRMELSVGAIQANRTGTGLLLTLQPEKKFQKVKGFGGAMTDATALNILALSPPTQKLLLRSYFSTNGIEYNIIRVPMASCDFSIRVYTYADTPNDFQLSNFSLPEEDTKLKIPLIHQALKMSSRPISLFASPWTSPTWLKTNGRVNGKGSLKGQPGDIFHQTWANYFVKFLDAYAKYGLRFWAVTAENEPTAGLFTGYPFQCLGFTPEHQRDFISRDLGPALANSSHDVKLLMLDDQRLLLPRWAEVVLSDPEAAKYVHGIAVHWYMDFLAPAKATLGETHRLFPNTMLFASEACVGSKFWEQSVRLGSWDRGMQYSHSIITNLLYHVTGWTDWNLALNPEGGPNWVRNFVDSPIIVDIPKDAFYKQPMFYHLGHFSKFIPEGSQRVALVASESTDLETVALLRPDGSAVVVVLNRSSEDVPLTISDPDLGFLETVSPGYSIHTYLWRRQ
The experiment in a line: CBE dose titration in WT mice: GCase activity (4MU hydrolysis assay). The experiment is classed as in vivo. As to conditions: cortex and liver, 24 hours, 0.3-100 mg/kg CBE.
Experimental: N=4 per group (8 for untreated and 100 mg/kg plasma). […] Error bars show SEM.

Experiment [3] concerns Lyso-GL1 levels. The experiment in a line: CBE dose titration in WT mice: lyso-GL1 accumulation. As to conditions: cortex, liver and plasma, 24 hours after CBE. Type of experiment: in vivo. Here is the method:
Lyso-GL1 was detected in cortex (FIG. 2A), liver (FIG. 2B), and plasma (FIG. 2C). N=4 per group (8 for untreated and 100 mg/kg plasma). Results for lyso-GL1 are μg/g wet tissue. […] Error bars show SEM.
A dose response to CBE was performed in wild-type (WT) mice (Charles River Laboratories or Jackson Labs). Concentrations between 0.3 mg/kg and 100 mg/kg of CBE were investigated. GCase activity remaining 24 hours after administration of CBE was measured using a 4-methylumbelliferone (4MU) hydrolysis assay. Briefly, cell lysates from different sample types were diluted into 0.1 M sodium acetate buffer, pH 4.5 containing 10 mM of synthetic substrate 4-methylumbelliferyl-β-D-glucopyranoside and incubated at 37° C. for 1 hour. The reaction was terminated by adding 0.5 volume of 1 M glycine buffer, pH 12.5. The fluorescence of the reaction was measured using a Spectramax fluorimeter (Ex365/Em445; Molecular Devices, Sunnyvale, CA, USA). A standard curve was generated using Cerezyme® (imiglucerase).

Experiment [4] relates to GL1 and lyso-GL1 accumulation. The experiment in a line: CBE timecourse of lipid flux in Gba D409V/D409V, D409V/+ and +/+ mice. Type of experiment: in vivo. As to conditions: single intraperitoneal CBE injection. The source says: For each plot, the top line (with squares) is the homozygous D409V mice, the middle line (with triangles pointing upwards) is the heterozygous mice, and the bottom line (triangles pointing downwards) is the wild-type mice. N=10 per group. Data are shown as mean±SEM.
It was investigated whether substrate accumulation could allow for discrimination between mice harboring different copy numbers of mutations in GBA1. Three mouse models were investigated: Gba^D409V/D409V, Gba^D409V/+, and Gba^+/+, which are homozygous for a loss of function D409V mutation in GBA1, heterozygous for that mutation, or WT for GBA1, respectively. The GCase substrate, glucosylceramide (GL1) was investigated in addition to glucosylsphingosine (lyso-GL1). Mice were administered a single dose of CBE and sacrificed after 3, 6, 24, 48, or 72 hours. Substrate accumulation and dissipation was measured over time.

The test system of experiment [5] is lyso-GL1 and GL-1 accumulation. Put plainly: CBE timecourse of lipid flux in wild-type mouse strains. The settings on record: C57BL/6, BALB/cJ and FVB mice after CBE challenge. The experiment is classed as in vivo. On the procedure:
GSL levels were measured in cortex (FIG. 4A), liver (FIG. 4B), and plasma (FIG. 4C). […] Data are shown as mean±SD.
Three different wild-type mouse strains (C57BL/6J, BALB/cJ, and FVB-Charles River Laboratories or Jackson Labs) were evaluated for GSL accumulation and restoration after CBE challenge. […] The CBE challenge time course was performed in these three different strains, measuring lyso-GL1 and GL-1 accumulation at 24, 48, and 72 hours after administration.

Experiment [6] concerns SHSY-5Y neuroblastoma cells. Put plainly: Lipid response of SHSY-5Y neuroblastoma cells to CBE incubation. Type of experiment: cell-based, human. The settings on record: 100 μM CBE for 24 hours. The text has this: In each case, the lyso-GL1 levels without treatment are very low (left-hand bar, in black). Error bars show SD, and data are presented in relative (arbitrary) units, “AU”, which are normalized for cell number.
First, the response of human SHSY-5Y neuroblastoma cells to CBE was studied. Cells were either used without further changes (wild-type) or were modified to reduce or increase Gba activity (knock-down and over-expressed, respectively). The modification was effected by stable transfection with a plasmid expressing an siRNA targeting GBA (KD) or a plasmid constitutively overexpressing GBA (OE). Human SHSY-5Y neuroblastoma cells (Sigma) were incubated with 100 μM CBE (Toronto Research Chemicals) for 24 hours. Enzyme activity and lipid levels were measured at −24 hours (before CBE incubation), and at 0, 24, and 48 hours after CBE removal. […] A marked increase in enzyme activity was observed between the knock-down and wild-type cells, and between the wild-type and over-expressed cells.

Experiment [7] has as its system human peripheral blood mononuclear cells (PBMCs). Put plainly: CBE challenge in human PBMCs. Type of experiment: cell-based. On the procedure:
PBMCs were obtained from blood samples (Stem Cell Technologies, catalog number 70025, lot number 2105417005, Donor ID CE0006419) using standard procedures. 25,000 cells were added to individual wells of a multi-well plate and allowed to acclimate for 24 hours before they were treated with 100 μM CBE for 24 hours. Culture medium was removed and replaced with fresh medium (without CBE), and lipids were extracted from the cells at time intervals of 0, 2, 4, 8, 16 and 24 hours. GL1 and lyso-GL1 levels were measured, as were levels of phosphatidylcholine (PC).

Experiment [8] concerns the target T2, GCase (Homo sapiens, UniProt P04062).
T2 sequence (P04062 40-536): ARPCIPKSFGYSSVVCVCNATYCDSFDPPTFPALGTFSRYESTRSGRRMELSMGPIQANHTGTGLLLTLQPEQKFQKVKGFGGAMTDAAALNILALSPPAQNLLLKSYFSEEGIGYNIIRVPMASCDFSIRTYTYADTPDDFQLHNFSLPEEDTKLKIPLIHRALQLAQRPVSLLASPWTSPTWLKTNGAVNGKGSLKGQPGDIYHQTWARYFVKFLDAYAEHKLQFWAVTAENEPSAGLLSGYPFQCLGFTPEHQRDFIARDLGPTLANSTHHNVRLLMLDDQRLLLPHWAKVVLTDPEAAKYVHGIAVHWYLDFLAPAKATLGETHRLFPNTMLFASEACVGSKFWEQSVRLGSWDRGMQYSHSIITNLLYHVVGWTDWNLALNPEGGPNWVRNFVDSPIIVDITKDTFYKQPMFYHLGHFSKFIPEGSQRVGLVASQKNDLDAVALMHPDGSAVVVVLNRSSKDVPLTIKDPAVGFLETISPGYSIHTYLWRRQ
As to conditions: read-out: IC50 against GCase; cited from earlier work.

Experiment [9] addresses T3, non-lysosomal glucosylceramidase (Homo sapiens, UniProt Q9HCG7).
T3 sequence (Q9HCG7 1-927): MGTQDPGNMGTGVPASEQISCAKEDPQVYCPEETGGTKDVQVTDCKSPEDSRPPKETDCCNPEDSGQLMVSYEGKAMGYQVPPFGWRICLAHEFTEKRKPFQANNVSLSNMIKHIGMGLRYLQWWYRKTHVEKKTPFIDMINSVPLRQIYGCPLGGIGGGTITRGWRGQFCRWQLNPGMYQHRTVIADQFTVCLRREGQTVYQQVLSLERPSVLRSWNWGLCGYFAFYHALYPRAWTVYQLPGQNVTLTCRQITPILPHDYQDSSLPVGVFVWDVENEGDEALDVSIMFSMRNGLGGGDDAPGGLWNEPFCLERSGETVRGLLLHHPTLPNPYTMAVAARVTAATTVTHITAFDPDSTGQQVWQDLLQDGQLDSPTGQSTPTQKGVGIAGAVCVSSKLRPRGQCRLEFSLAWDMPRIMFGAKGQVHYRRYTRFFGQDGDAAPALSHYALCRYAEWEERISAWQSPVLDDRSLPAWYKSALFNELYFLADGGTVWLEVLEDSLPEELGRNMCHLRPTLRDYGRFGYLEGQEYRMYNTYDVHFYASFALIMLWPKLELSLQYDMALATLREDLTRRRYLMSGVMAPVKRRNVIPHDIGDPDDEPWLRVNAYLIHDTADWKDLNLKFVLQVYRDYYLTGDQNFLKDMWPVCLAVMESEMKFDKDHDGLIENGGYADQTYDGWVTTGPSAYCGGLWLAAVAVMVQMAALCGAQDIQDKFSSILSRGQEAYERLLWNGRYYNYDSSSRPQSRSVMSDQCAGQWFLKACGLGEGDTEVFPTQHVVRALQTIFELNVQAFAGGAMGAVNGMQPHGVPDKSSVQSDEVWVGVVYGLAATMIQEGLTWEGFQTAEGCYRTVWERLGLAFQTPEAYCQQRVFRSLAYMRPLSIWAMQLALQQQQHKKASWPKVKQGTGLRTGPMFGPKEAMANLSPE
The settings on record: range given jointly for three glycosidases; read-out: IC50 against non-lysosomal glucosylceramidase; cited from earlier work.

For experiment [10], the target named is T4, β-glucuronidase (Homo sapiens, UniProt P08236).
T4 sequence (P08236 23-651): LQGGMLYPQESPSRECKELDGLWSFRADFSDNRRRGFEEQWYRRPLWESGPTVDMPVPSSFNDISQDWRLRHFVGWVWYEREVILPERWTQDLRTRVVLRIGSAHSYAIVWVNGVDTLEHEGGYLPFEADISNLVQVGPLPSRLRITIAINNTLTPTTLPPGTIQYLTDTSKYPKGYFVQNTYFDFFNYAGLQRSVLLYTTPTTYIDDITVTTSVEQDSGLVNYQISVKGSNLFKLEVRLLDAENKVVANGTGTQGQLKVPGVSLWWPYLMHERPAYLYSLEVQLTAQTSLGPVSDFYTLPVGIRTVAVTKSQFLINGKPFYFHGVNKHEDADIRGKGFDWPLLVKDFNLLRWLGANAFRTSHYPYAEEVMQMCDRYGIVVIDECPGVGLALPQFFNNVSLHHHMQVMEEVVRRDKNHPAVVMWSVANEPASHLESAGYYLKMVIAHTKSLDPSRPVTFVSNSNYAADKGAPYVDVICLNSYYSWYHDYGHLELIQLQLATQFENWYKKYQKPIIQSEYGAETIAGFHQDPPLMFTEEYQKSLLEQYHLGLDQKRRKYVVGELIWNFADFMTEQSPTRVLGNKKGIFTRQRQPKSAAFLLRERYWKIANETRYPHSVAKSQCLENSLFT
As to conditions: range given jointly for three glycosidases; read-out: IC50 against β-glucuronidase; cited from earlier work.

The subject of experiment [11] is α-glucosidases. The settings on record: range given jointly for three glycosidases; read-out: IC50 against α-glucosidases; cited from earlier work.

Molecules are shown by their SMILES.

The term IC50 denotes the point on the concentration scale where inhibition reaches its midpoint.

In the case of `C[C@H](CCC(=O)NCCS(=O)(=O)O)[C@H]1CC[C@H]2[C@@H]3[C@H](O)C[C@@H]4C[C@H](O)CC[C@]4(C)[C@H]3C[C@H](O)[C@]12C` [sodium taurocholate], in [1], the “increase of response (dynamic range) on incubation with sodium taurocholate” value is listed as about 10 factor.
`O[C@H]1[C@H](O)[C@@H](O)[C@@H]2O[C@@H]2[C@@H]1O` [CBE, conduritol-β epoxide]: the “GCase activity remaining after administration of CBE” value in experiment [2] is “dose-dependent reduction in enzyme activity”. Also, the Lyso-GL1 levels entry in experiment [3] is “increased with increasing CBE dose beyond 30 mg/kg”. Besides, the “time of peak substrate accumulation” value in experiment [4] lay in the range of 24 to 48 h. In experiment [5], the “time of peak glycosphingolipid levels” value came to 24 h. The “GL1 and lyso-GL1 accumulation upon CBE treatment” value in experiment [6] (KD, WT and OE SHSY-5Y cells) is “inversely proportional to the level of GBA1 expression”. Also, in experiment [6] (wild-type SHSY-5Y cells), the “total GL1 levels after treatment” value is reported as “No significant difference”. Besides, the “increase of GL1 levels after CBE treatment” value in experiment [7] (100 μM CBE for 24 hours) was “about 6 fold”. Moreover, the “phosphatidylcholine (PC) levels” value in experiment [7] (100 μM CBE for 24 hours) is reported as “largely unaffected”. Further, in experiment [7] (100 μM CBE for 24 hours, baseline about 2 ng/ml), the “GL1 levels after CBE treatment” value was “about 12 ng/ml”. For the same compound, the “lyso-GL1 levels after CBE treatment” value in [7] (100 μM CBE for 24 hours, from nearly undetectable levels) was “about 0.08 ng/ml”. Also, in [7] (normalized to PC levels), the “time for GL1 and lyso-GL1 levels to normalize after treatment” value was found to be 16 h. Moreover, the half-maximal inhibitory concentration (IC50) is about 300 nM in experiment [8], 0.2 to 2 mM in experiment [9], 0.2 to 2 mM in experiment [10] and 0.2 to 2 mM in [11].
